This series can be described thus: Crystalline and amorphous solubility of the substance. It counts as physicochemical. Conditions: water. Here is the method:
The solubility of the substance in water may be measured using a conventional technique. For example, a saturated solution of the substance is prepared by adding an excess amount of the substance to water at 25° C. and allowing the solution to equilibrate for 48 hours. Excess solids are removed by centrifugation or filtration and the concentration of the substance in water is determined by a suitable analytical technique such as HPLC. Without wishing to be bound by theory, it is thought that the formation of the initial suspension of amorphous particles following combination of the first solution with the aqueous phase promotes the subsequent formation of a uniform dispersion of nano-crystalline particles during the subsequent sonication. […] It is thought that the presence of the dispersion of amorphous particles during the sonication provides a reservoir of material in solution for the crystallisation step and thereby maintains a high and constant level of super-saturation relative to the crystalline solubility because of the higher amorphous solubility. The high and relatively constant degree of supersaturation provided by the presence of the amorphous particles provides favorable conditions for the formation of a large number of primary nuclei upon application of the ultrasound to the dispersion of amorphous particles. […]

Like-named read-outs stand apart in the source and are kept apart here.

Broadly, the solubility is the dissolved amount per volume that the medium holds.

With `CCOC(=O)C1=C(C)NC(C)=C(C(=O)OC)C1c1cccc(Cl)c1Cl` (centres unmarked) [felodipine], the solubility by setting is: (25 °C, thermodynamic from solid, crystalline form, read-out: crystalline solubility) 2 µM; (amorphous form, read-out: amorphous solubility) approximately 24 µM.

The values are drawn from patent publication US7780989B2, “Process for the preparation of crystalline nano-particle dispersions” (AstraZeneca AB, priority 2002, dated 2010).
